Results reported in patent publication US10758534B2 (Vertex Pharmaceuticals Incorporated, priority 2014, dated 2020).

Target: T1, F508del (Homo sapiens, UniProt P13569, DEL508-508)
T1 construct: expressed in transfected cells
Assay: Protocol 1: membrane potential optical assay (FLIPR III, voltage sensing dye), identification of potentiator compounds
Format: cell-based
Settings: Table 3, compounds of Table 1
In short: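 NIH3T3 F508del cells, 27° C × 24 hrs; compound/DMSO pretreat → redistribution dye load → single forskolin addition with Cl⁻ gradient (gluconate-substituted bath, HEPES pH 7.4). FLIPR III membrane-potential fluorescence read.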

T1 sequence (P13569 with tags, fused parts or gaps DEL508-508): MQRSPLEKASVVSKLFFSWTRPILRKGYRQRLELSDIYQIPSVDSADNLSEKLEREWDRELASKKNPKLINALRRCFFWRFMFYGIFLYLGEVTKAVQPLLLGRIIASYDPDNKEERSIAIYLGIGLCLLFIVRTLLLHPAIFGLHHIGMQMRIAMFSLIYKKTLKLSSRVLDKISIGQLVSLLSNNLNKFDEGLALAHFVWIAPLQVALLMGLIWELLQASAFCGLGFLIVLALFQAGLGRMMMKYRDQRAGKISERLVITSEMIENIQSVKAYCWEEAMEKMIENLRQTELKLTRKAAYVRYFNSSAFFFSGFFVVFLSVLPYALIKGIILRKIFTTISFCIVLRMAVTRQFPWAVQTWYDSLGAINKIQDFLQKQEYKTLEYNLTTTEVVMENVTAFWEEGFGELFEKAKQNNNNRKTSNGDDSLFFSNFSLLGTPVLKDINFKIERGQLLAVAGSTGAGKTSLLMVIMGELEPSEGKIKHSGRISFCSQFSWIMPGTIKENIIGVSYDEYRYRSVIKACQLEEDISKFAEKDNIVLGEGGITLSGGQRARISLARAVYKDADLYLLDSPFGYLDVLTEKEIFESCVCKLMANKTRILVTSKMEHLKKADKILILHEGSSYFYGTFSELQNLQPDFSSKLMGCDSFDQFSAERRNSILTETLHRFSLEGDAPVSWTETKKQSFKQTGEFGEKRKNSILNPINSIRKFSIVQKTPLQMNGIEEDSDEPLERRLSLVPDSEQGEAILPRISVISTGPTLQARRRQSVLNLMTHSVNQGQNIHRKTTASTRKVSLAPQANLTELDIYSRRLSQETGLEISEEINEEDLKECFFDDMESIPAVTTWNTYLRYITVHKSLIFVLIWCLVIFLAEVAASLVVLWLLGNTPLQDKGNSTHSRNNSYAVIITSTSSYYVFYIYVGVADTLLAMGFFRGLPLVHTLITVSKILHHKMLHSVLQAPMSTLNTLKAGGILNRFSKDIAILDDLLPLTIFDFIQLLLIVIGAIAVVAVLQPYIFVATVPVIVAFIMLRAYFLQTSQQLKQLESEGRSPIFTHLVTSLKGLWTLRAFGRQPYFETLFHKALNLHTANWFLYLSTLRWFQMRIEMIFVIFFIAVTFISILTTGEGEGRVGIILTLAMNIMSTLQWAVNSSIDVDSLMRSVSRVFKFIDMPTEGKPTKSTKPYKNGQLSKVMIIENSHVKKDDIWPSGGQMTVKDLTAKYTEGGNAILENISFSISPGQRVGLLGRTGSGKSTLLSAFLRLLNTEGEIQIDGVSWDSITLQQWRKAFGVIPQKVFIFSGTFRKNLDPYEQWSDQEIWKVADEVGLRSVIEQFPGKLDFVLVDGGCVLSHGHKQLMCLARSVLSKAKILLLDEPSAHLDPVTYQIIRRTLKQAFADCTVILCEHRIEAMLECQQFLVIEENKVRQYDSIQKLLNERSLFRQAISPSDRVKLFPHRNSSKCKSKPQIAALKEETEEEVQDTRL

Compound | EC30
CC(=O)NC1CCCN(S(=O)(=O)NC(=O)c2ccc(-c3cc(F)cc(OCC(C)C)c3)nc2N2CC(C)CC2(C)C)C1 (stereo not shown) [Compound 1586, N-[(3-acetamido-1-piperidyl)sulfonyl]-6-(3-fluoro-5-isobutoxy-phenyl)-2-(2,2,4-trimethylpyrrolidin-1-yl)pyridine-3-carboxamide] | +++ (“+++” means <3 uM)
CCOc1cccc2c1CN(Cc1c(C)cc(C)cc1C)C2(C)C(=O)NS(=O)(=O)c1ccc(Cl)c(N)c1 (stereo not shown) [Compound 1587, N-(3-amino-4-chloro-phenyl)sulfonyl-4-ethoxy-1-methyl-2-[(2,4,6-trimethylphenyl)methyl]isoindoline-1-carboxamide] | +++ (“+++” means <3 uM)
CC(C)Oc1ccc(-c2ccc(C(=O)NS(=O)(=O)c3ccc(OCc4ccccc4)c(N)n3)c(N3[C@H](C)CC[C@@H]3C)n2)cn1 [Compound 1588, N-[(6-amino-5-benzyloxy-2-pyridyl)sulfonyl]-2-[(2S,5R)-2,5-dimethylpyrrolidin-1-yl]-6-(6-isopropoxy-3-pyridyl)pyridine-3-carboxamide] | +++ (“+++” means <3 uM)
Cc1cc(C)c(Oc2nc(N3[C@H](C)CC[C@@H]3C)c(C)cc2C(=O)NS(=O)(=O)c2cccc(N)n2)c(C)c1 [Compound 1589, N-[(6-amino-2-pyridyl)sulfonyl]-6-[(2R,5S)-2,5-dimethylpyrrolidin-1-yl]-5-methyl-2-(2,4,6-trimethylphenoxy)pyridine-3-carboxamide] | +++ (“+++” means <3 uM)
CC(C)=C(C)c1cnc(N2CC(C)CC2(C)C)c(C(=O)NS(=O)(=O)c2cccc(N)n2)c1 (stereo not shown) [Compound 1590, N-[(6-amino-2-pyridyl)sulfonyl]-5-(1,2-dimethylprop-1-enyl)-2-(2,2,4-trimethylpyrrolidin-1-yl)pyridine-3-carboxamide] | +++ (“+++” means <3 uM)
CCOc1cccc2c1CN(Cc1c(C)cc(C)cc1C)C2(C)C(=O)NS(=O)(=O)c1cccnc1N (stereo not shown) [Compound 1591, N-[(2-amino-3-pyridyl)sulfonyl]-4-ethoxy-1-methyl-2-[(2,4,6-trimethylphenyl)methyl]isoindoline-1-carboxamide] | +++ (“+++” means <3 uM)
CC(C)COc1cc(F)cc(-c2ccc(C(=O)NS(=O)(=O)c3cccc(N)n3)c(O[C@@H]3CCOC3)n2)c1 [Compound 1592, N-[(6-amino-2-pyridyl)sulfonyl]-6-(3-fluoro-5-isobutoxy-phenyl)-2-[(3R)-tetrahydrofuran-3-yl]oxy-pyridine-3-carboxamide] | +++ (“+++” means <3 uM)
CC(C)COc1cc(F)cc(-c2ccc(C(=O)NS(=O)(=O)c3cccnc3N)c(N3C[C@@H](C)CC3(C)C)n2)c1 [Compound 1593, N-[(2-amino-3-pyridyl)sulfonyl]-6-(3-fluoro-5-isobutoxy-phenyl)-2-[(4S)-2,2,4-trimethylpyrrolidin-1-yl]pyridine-3-carboxamide] | +++ (“+++” means <3 uM)
C[C@@H]1CN(c2nc(C3=CCOCC3)ccc2C(=O)NS(=O)(=O)c2cccc(N)n2)C(C)(C)C1 [Compound 1594, N-[(6-amino-2-pyridyl)sulfonyl]-6-(3,6-dihydro-2H-pyran-4-yl)-2-[(4S)-2,2,4-trimethylpyrrolidin-1-yl]pyridine-3-carboxamide] | +++ (“+++” means <3 uM)
C[C@@H]1CN(c2nc(C3CCOCC3)ccc2C(=O)NS(=O)(=O)c2cccc(N)n2)C(C)(C)C1 [Compound 1595, N-[(6-amino-2-pyridyl)sulfonyl]-6-tetrahydropyran-4-yl-2-[(4S)-2,2,4-trimethylpyrrolidin-1-yl]pyridine-3-carboxamide] | +++ (“+++” means <3 uM)
CCOc1cccc2c1CN(Cc1c(C)cc(C)cc1C)C2(C)C(=O)NS(=O)(=O)c1ccc(Cl)c(N)n1 (stereo not shown) [Compound 1596, N-[(6-amino-5-chloro-2-pyridyl)sulfonyl]-4-ethoxy-1-methyl-2-[(2,4,6-trimethylphenyl)methyl]isoindoline-1-carboxamide] | +++ (“+++” means <3 uM)
CCOc1cccc2c1CN(Cc1c(C)cc(C)cc1C)C2(C)C(=O)NS(=O)(=O)c1cccc(C(F)F)n1 (stereo not shown) [Compound 1597, N-[[6-(difluoromethyl)-2-pyridyl]sulfonyl]-4-ethoxy-1-methyl-2-[(2,4,6-trimethylphenyl)methyl]isoindoline-1-carboxamide] | +++ (“+++” means <3 uM)
Cc1cc(C)c(Oc2nc(C3=CC(C)(C)CCC3=O)ccc2C(=O)NS(=O)(=O)c2cccc(N)n2)c(C)c1 [Compound 1598, N-[(6-amino-2-pyridyl)sulfonyl]-6-(3,3-dimethyl-6-oxo-cyclohexen-1-yl)-2-(2,4,6-trimethylphenoxy)pyridine-3-carboxamide] | +++ (“+++” means <3 uM)
CC(C)Cc1ccc(C(=O)NS(=O)(=O)c2cccc(N)n2)c(N2C[C@@H](C)CC2(C)C)n1 [Compound 1599, N-[(6-amino-2-pyridyl)sulfonyl]-6-isobutyl-2-[(4S)-2,2,4-trimethylpyrrolidin-1-yl]pyridine-3-carboxamide] | +++ (“+++” means <3 uM)
CC(C)COc1cc(F)cc(-c2ccc(C(=O)NS(=O)(=O)N3CCCC(NS(C)(=O)=O)C3)c(N3CC(C)CC3(C)C)n2)c1 (stereo not shown) [Compound 1600, 6-(3-fluoro-5-isobutoxy-phenyl)-N—[[3-(methanesulfonamido)-1-piperidyl]sulfonyl]-2-(2,2,4-trimethylpyrrolidin-1-yl)pyridine-3-carboxamide] | +++ (“+++” means <3 uM)
CC1CN(c2nc(C(C)(C)C)c(C3=CCCCC3)cc2C(=O)NS(=O)(=O)c2cccc(N)n2)C(C)(C)C1 (stereo not shown) [Compound 1601, N-[(6-amino-2-pyridyl)sulfonyl]-6-tert-butyl-5-(cyclohexen-1-yl)-2-(2,2,4-trimethylpyrrolidin-1-yl)pyridine-3-carboxamide] | +++ (“+++” means <3 uM)
Cc1cc(C)c(Oc2nc(C(C)(C)C)ccc2C(=O)N=S(N)(=O)c2cccc(N)n2)c(C)c1 (stereo not shown) [Compound 1602, N-[amino-(6-amino-2-pyridyl)-oxo-$1^6-sulfanylidene]-6-tert-butyl-2-(2,4,6-trimethylphenoxy)pyridine-3-carboxamide] | +++ (“+++” means <3 uM)
C[C@@H]1CN(c2ncc(Cl)cc2C(=O)NS(=O)(=O)c2cccc(N)n2)C(C)(C)C1 [Compound 1603, N-[(6-amino-2-pyridyl)sulfonyl]-5-chloro-2-[(4S)-2,2,4-trimethylpyrrolidin-1-yl]pyridine-3-carboxamide] | ++ (“++” means between 3 uM and 10 uM)
CC(C)COc1cc(F)cc(-c2ccc(C(=O)NS(=O)(=O)c3cccc(N)n3)c(OCCC3CCCO3)n2)c1 (stereo not shown) [Compound 1604, N-[(6-amino-2-pyridyl)sulfonyl]-6-(3-fluoro-5-isobutoxy-phenyl)-2-(2-tetrahydrofuran-2-ylethoxy)pyridine-3-carboxamide] | +++ (“+++” means <3 uM)
CC(C)COc1cc(F)cc(-c2ccc(C(=O)NS(=O)(=O)c3cccc(N)n3)c(OCCc3ccncc3)n2)c1 [Compound 1605, N-[(6-amino-2-pyridyl)sulfonyl]-6-(3-fluoro-5-isobutoxy-phenyl)-2-[2-(4-pyridyl)ethoxy]pyridine-3-carboxamide] | +++ (“+++” means <3 uM)
CCOc1cccc2c1CN(Cc1c(C)cc(C)cc1C)C2(C)C(=O)NS(=O)(=O)c1cncs1 (stereo not shown) [Compound 1606, 4-ethoxy-1-methyl-N-thiazol-5-ylsulfonyl-2-[(2,4,6-trimethylphenyl)methyl]isoindoline-1-carboxamide] | +++ (“+++” means <3 uM)
C[C@@H]1CN(c2ncc(F)cc2C(=O)NS(=O)(=O)c2cccc(N)n2)C(C)(C)C1 [Compound 1607, N-[(6-amino-2-pyridyl)sulfonyl]-5-fluoro-2-[(4S)-2,2,4-trimethylpyrrolidin-1-yl]pyridine-3-carboxamide] | ++ (“++” means between 3 uM and 10 uM)
CC(C)COc1cc(F)cc(-c2ccc(C(=O)NS(=O)(=O)N3CCCC(O)C3)c(N3C[C@@H](C)CC3(C)C)n2)c1 (stereo partly drawn) [Compound 1608, 6-(3-fluoro-5-isobutoxy-phenyl)-N-[(3-hydroxy-1-piperidyl)sulfonyl]-2-[(4S)-2,2,4-trimethylpyrrolidin-1-yl]pyridine-3-carboxamide] | +++ (“+++” means <3 uM)
Cc1cc(C)c(Oc2nc(C3=CC(C)(C)OC3(C)C)ccc2C(=O)NS(=O)(=O)c2cccc(N)n2)c(C)c1 [Compound 1609, N-[(6-amino-2-pyridyl)sulfonyl]-6-(2,2,5,5-tetramethyl-3-furyl)-2-(2,4,6-trimethylphenoxy)pyridine-3-carboxamide] | +++ (“+++” means <3 uM)
Cc1ccc(-c2ccc(C(=O)NS(=O)(=O)c3cccc(N)n3)c(N3CC(C)CC3(C)C)n2)nc1OCC(C)(C)C (stereo not shown) [Compound 1610, N-[(6-amino-2-pyridyl)sulfonyl]-6-[6-(2,2-dimethylpropoxy)-5-methyl-2-pyridyl]-2-(2,2,4-trimethylpyrrolidin-1-yl)pyridine-3-carboxamide] | +++ (“+++” means <3 uM)
CC[C@H]1CN(c2nc(-c3cc(F)cc(OCC(C)C)c3)ccc2C(=O)NS(=O)(=O)c2cccc(N)n2)C(C)(C)C1 [Compound 1611, N-[(6-amino-2-pyridyl)sulfonyl]-2-[(4R)-4-ethyl-2,2-dimethyl-pyrrolidin-1-yl]-6-(3-fluoro-5-isobutoxy-phenyl)pyridine-3-carboxamide] | +++ (“+++” means <3 uM)
CC[C@@H]1CN(c2nc(-c3cc(F)cc(OCC(C)C)c3)ccc2C(=O)NS(=O)(=O)c2cccc(N)n2)C(C)(C)C1 [Compound 1612, N-[(6-amino-2-pyridyl)sulfonyl]-2-[(4S)-4-ethyl-2,2-dimethyl-pyrrolidin-1-yl]-6-(3-fluoro-5-isobutoxy-phenyl)pyridine-3-carboxamide] | +++ (“+++” means <3 uM)
C[C@@H]1CN(c2nc(C(C)(C)C)c(/C=C/C(C)(C)C)cc2C(=O)NS(=O)(=O)c2cccc(N)n2)C(C)(C)C1 [Compound 1613, N-[(6-amino-2-pyridyl)sulfonyl]-6-tert-butyl-5-[(E)-3,3-dimethylbut-1-enyl]-2-[(4S)-2,2,4-trimethylpyrrolidin-1-yl]pyridine-3-carboxamide] | +++ (“+++” means <3 uM)
